Test results: patent US5944026A, “Tobacco products or materials resembling tobacco products containing natural substances having an antioxidative effect and processes for the preparation thereof” (priority 1994, dated 1999)
Like-named read-outs stand apart in the source and are kept apart here.

Columns and labels:
[1] = Solubility/miscibility of aromatic substances, vitamins A and E and β-carotene in natural substances used as solvents; type: physicochemical
[2] = test system: Salmonella typhimurium, strain TA 98; test: Ames test (TA98): antimutagenic effect of added substances on mutagenicity of cigarette smoke condensate; type: cell-based; details: graphical representation in figure
Method: To detect this antimutagenic action, the Ames test (loc.cit.) was carried out as a meaningful rapid test.
It was ensured in this process that work was carried out in a concentration range which was not toxic for the bacteria.

[3] = Solubility of aromatic substances and the vitamins A and E in filter hardeners; details: for solubility in hardener TEGDA: hardener: TEGDA (triethylene glycol diacetate)
[4] = test system: Salmonella typhimurium, strain TA 98; test: Ames test with S9 activation: smoke condensate of experimental cigarettes with cloves, cinnamon sticks or eugenol; type: cell-based; details: additions to cut tobacco
Method: Five versions of filter cigarettes which differ in the composition of the final mixture according to Table 6 and have the same tobacco base mixture were prepared in the same format and same cigarette weight (940 mg). The cloves or cinnamon sticks employed were moistened with steam, rolled and cut before mixing with tobacco.
The experimental cigarettes were smoked under standard conditions (see Example 1).

SMILES	mutagenicity of cigarette smoke condensate on addition of the substance [2]	solubility in hardener triacetin [3]	solubility in cinnamaldehyde as a solvent ([1]; solvent: cinnamaldehyde)	solubility in eugenol as a solvent [1]	solubility in jasminealdehyde as a solvent ([1]; solvent: jasminealdehyde)	further results
CC1=C(/C=C/C(C)=C/C=C/C(C)=C/CO)C(C)(C)CCC1 [Vitamin A, retinol]	–	–	–	–	–	solubility in cinnamaldehyde as a solvent [1]: > 10 % by weight; solubility in jasminealdehyde as a solvent [1]: > 10 % by weight
O=C(O)/C=C/c1ccc(O)c(O)c1 [caffeic acid, Caffeic acid]	reduction of the mutagenicity	–	–	–	–	–
COc1cc(/C=C/C(=O)CC(=O)/C=C/c2ccc(O)c(OC)c2)ccc1O [curcumin, Curcumin]	reduction of the mutagenicity	–	–	–	–	–
Cc1c(C)c2c(c(C)c1O)CCC(C)(CCCC(C)CCCC(C)CCCC(C)C)O2 (stereo not drawn) [Vitamin E, α-tocopherol]	–	> 10 % by weight	–	–	–	–
C=CCc1ccc(O)c(OC)c1 [eugenol, Eugenol]	reduction of the mutagenicity	–	–	–	–	mutagenic effect of the smoke condensate (in words) [4]: decrease the mutagenic effect of the smoke condensate
CC1=C(/C=C/C(C)=C/C=C/C(C)=C/C=C/C=C(C)/C=C/C=C(C)/C=C/C2=C(C)CCCC2(C)C)C(C)(C)CCC1 [β-carotene]	–	–	> 1 % by weight	< 1 % by weight	< 1 % by weight	solubility in vitamin E acetate as a solvent [1]: < 1 % by weight
Cc1ccc2oc(=O)ccc2c1 [6-Methylcoumarin]	–	–	–	–	–	solubility in cinnamaldehyde as a solvent [1]: > 10 % by weight; solubility in jasminealdehyde as a solvent [1]: > 10 % by weight
COc1cc2ccc(=O)oc2cc1O [scopoletin, 7-hydroxy-6-methoxycoumarin]	reduction of the mutagenicity	–	–	–	–	–
CCOc1cc(C=O)ccc1O [Ethylvanillin]	–	> 10 % by weight	> 10 % by weight	> 10 % by weight	> 10 % by weight	solubility in hardener TEGDA [3]: > 10 % by weight; solubility in hardener eugenol [3]: > 10 % by weight; solubility in vitamin E acetate as a solvent [1]: < 1 % by weight
Cc1c(C)c2c(c(C)c1OC(=O)CCC(=O)O)CC[C@@](C)(CCC[C@H](C)CCC[C@H](C)CCCC(C)C)O2 [Vitamin E succinate, tocopherol succinate]	–	< 1 % by weight	> 10 % by weight	> 10 % by weight	> 10 % by weight	solubility in hardener TEGDA [3]: < 1 % by weight; solubility in hardener eugenol [3]: 10 % by weight
